The values below come from publication PMC3401275 (International Journal of Pharmaceutics, 2012).

The test system of data set [1] is Caco-2 cells. Put plainly: Cytotoxicity assay. The data set is classed as cell-based, human. Conditions: 100µM, 48 h.
For data set [2] the following is noted: cited from earlier work.
The target of data set [3] is T1, SMVT (Canis lupus familiaris, UniProt A0A8I3MY61).
T1 sequence (A0A8I3MY61 1-636): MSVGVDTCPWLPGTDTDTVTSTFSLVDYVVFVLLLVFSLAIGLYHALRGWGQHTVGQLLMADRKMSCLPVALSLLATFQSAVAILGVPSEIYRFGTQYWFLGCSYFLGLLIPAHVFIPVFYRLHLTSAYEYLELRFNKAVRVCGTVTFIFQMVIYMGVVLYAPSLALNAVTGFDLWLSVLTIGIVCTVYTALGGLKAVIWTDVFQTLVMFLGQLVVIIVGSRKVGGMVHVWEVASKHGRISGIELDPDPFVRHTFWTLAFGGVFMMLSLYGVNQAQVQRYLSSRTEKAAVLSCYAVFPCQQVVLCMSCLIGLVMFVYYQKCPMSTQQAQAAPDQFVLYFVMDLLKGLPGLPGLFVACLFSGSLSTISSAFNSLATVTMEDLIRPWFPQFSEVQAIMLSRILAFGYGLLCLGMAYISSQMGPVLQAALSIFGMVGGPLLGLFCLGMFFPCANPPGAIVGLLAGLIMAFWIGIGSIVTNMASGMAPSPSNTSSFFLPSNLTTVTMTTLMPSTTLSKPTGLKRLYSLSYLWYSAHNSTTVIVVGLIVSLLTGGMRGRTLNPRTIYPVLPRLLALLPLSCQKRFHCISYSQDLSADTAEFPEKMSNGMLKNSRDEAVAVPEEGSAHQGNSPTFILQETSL
The data set is classed as cell-based, canine. As to conditions: MDCK-MDR1 cells, excess biotin, Fig. 4.

The target of data set [4] is T1, SMVT. Conditions: read-out: apparent affinity constant (Km) towards SMVT; MDCK-MDR1 cells, [3H] biotin uptake, 0.1–100µM, 30 min, Michaelis-Menten fit.
The target in data set [5] is T1, SMVT. Conditions: read-out: IC50 for inhibition of [3H] biotin uptake; MDCK-MDR1 cells, 0.1–100µM, 30 min.
The subject of data set [6] is Caco-2 cells. Put plainly: Cellular accumulation on Caco-2 cell monolayers. Conditions: 30 min incubation, Fig. 3.
Another data set concerns MDCK-MDR1 cells. Put plainly: Cellular accumulation on MDCK-MDR1 cell monolayers. As to conditions: 30 min incubation, Fig. 2.
Data set [7] has as its target T1, SMVT. As to conditions: MDCK-MDR1 monolayers, 0.5µCi/ml, no inhibitor.

Regarding `Nc1nc2c(ncn2COCCO)c(=O)[nH]1` [ACV, 2-amino-9-((2-hydroxyethoxy)methyl)-1H-purin-6(9H)-one], in the data set with Caco-2 cells [1], the cytotoxic effect result is given as “Neither ACV nor its targeted lipid prodrugs demonstrate any cytotoxic effect”. Besides, the oral bioavailability in data set [2] (in vivo, po) is reported as 15–30%.

With `CCCCCCC(CCCCCCCCCCC(=O)OCCOCn1cnc2c(=O)[nH]c(N)nc21)OC(=O)CCCC[C@@H]1SC[C@@H]2NC(=O)N[C@@H]21` (stereo partly shown) [B-12HS-ACV, biotin-12hydroxystearicacid-acyclovir], the “uptake of prodrug in the presence of unlabeled biotin” value (“uptake of prodrug” for short) at SMVT [3] is on record as “significantly lower”. At SMVT [4], the Km turned out to be 24 ± 3.2 µM. On SMVT [5], the IC50 worked out at 8.17 ± 0.09 µM. Besides, the “increase in the uptake compared to ACV” value with Caco-2 cells [6] was 8.3 times.

For `Nc1nc2c(ncn2COCCOC(=O)CCCC[C@@H]2SC[C@@H]3NC(=O)N[C@@H]32)c(=O)[nH]1` [B-ACV, Biotin-ACV], the “uptake of prodrug” value at SMVT [3] is “significantly lower”. The Km on SMVT [4] turned out to be 30.9 ± 4.19 µM. For the same molecule, the “increase in the uptake compared to parent drug, ACV” value with MDCK-MDR1 cells amounted to 6 times. The IC50 on SMVT [5] was determined as 14.84 ± 0.1 µM. Further, the “increase in the uptake compared to ACV” value with Caco-2 cells [6] was determined as 3.5 times.

Regarding `CC(C)[C@H](N)C(=O)OCCOCn1cnc2c(=O)[nH]c(N)nc21` [VACV, Valacyclovir], the “increase of the oral bioavailability of ACV” value in data set [2] (ref Balimane et al., 1998, de Vrueh et al., Guo et al., 1999, Jacobson, 1993, Perry and Faulds, 1996, Soul-Lawton et al., 1995, Talluri et al., 2008) was 3 to 5 fold.

Turning to [^3H] Biotin, the “Permeability of [3H] biotin alone” value at SMVT [7] came out at 4.74e-06 cm/s.

Turning to “biotin-ricinoleicacid-acyclovir [B-R-ACV]”, the “uptake of prodrug” value at SMVT [3] was “significantly lower”. For the same molecule, the Km at SMVT [4] came to 20.2 ± 1.74 µM. In addition, on SMVT [5], the IC50 came to 8.04 ± 0.07 µM.
